Patent US20230036051A1, “C[…] STABILITY” (priority 2021, published 2023)

Experiment: Storage stability of THC in ground cannabis flower, non-accelerated storage conditions
Format: physicochemical
Conditions: loss of THC content; positive control, amount not given
Experimental: After analyzing initial cannabinoid content, an amount of terpene blend 1 was added to 3.5 (±0.05) g of ground flower (1, 2, or 3%, by weight of the dried cannabis) was applied to the product and stored in an air-tight container protected from light. All experiments were performed in triplicate. The testing conditions included: (1) Non-Accelerated Storage Conditions without exogenous terpenes “Control”; (2) Accelerated Conditions (+3.0% by weight hydrogen peroxide, initially, and refreshed each week) without exogenous terpenes, and (3) Accelerated Conditions with exogenous terpenes “H2O2+Terpene” (Blend 1). (FIG. 2). Butylated hydroxytoluene (BHT), a preservative used in food, known to prevent radical-mediated oxidation was employed as a positive control. Each container was opened twice/week and stirred, simulating usual conditions for access of medicinal cannabis. The cannabinoid content was analyzed after 24 and 81 days of storage.
The stabilizing effect was observed after 81 days (TABLE 2) and also between days 24 and 81 (TABLE 3).

**Q.** With `Cc1cc(C(C)(C)C)c(O)c(C(C)(C)C)c1` [BHT, Butylated hydroxytoluene] as the molecule, how does the “Relative % Loss 0 to 81 Days” value read?
**A.** 7.90%

**Q.** And the “Relative % Loss 24 to 81 Days” value?
**A.** 18.65%
